In the supplement of paper PMC10331698:
± gives the standard deviation of the averaged measurements.

Legend:
Experiment in all cases: LOEC (log10 uM (lowest observed effect concentration))
[1] = compound: O=C(O)C(F)(F)C(F)(F)C(F)(F)C(F)(F)C(F)(F)C(F)(F)C(F)(F)C(F)(F)Cl [9-Chloro-perfluorononanoic acid]
Experimental: (§1)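 BioMAP Diversity Plus panel in human primary cell co-cultures, 4 concentrations in duplicate blinded samples. Responses are log10 fold change versus DMSO control, processed with tcpl v2.1.0. A hit is called when responses at any concentration exceed the cutoff (the larger of 3*bmad or log10(1.2)); the lowest observed effect concentration (modl_ga, log10 uM) is reported for hits.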

Perfluorooctanamidine = compound: N=C(N)C(F)(F)C(F)(F)C(F)(F)C(F)(F)C(F)(F)C(F)(F)C(F)(F)F [Perfluorooctanamidine]
Experimental: as §1

[2] = compound: O=C(O)C(F)(F)C(F)(F)C(F)(F)C(F)(F)C(F)(F)C(F)(F)C(F)(F)C(F)(F)C(F)(F)C(F)(F)C(F)(F)C(F)(F)F [Perfluorotridecanoic acid]
Experimental: as §1

[3] = compound: CNS(=O)(=O)C(F)(F)C(F)(F)C(F)(F)C(F)(F)C(F)(F)C(F)(F)C(F)(F)C(F)(F)F [N-Methylperfluorooctanesulfonamide]
Experimental: as §1

[4] = compound: O=C(O)C(F)(F)OC(F)(F)C(F)(F)OC(F)(F)C(F)(F)C(F)(F)C(F)(F)F [Perfluoro-3,6-dioxadecanoic acid]
Experimental: as §1

[5] = compound: O=S(=O)(O)C(F)(F)C(F)(F)C(F)(F)C(F)(F)C(F)(F)C(F)(F)C(F)(F)C(F)(F)F [Perfluorooctanesulfonic acid]
Experimental: as §1

[6] = compound: O=S(=O)(O)C(F)(F)C(F)(F)C(F)(F)C(F)(F)C(F)(F)C(F)(F)C(F)(F)C(F)(F)F [Potassium perfluorooctanesulfonate]
Experimental: as §1

[7] = compound: O=P(O)(O)CCC(F)(F)C(F)(F)C(F)(F)C(F)(F)C(F)(F)C(F)(F)C(F)(F)C(F)(F)F [((Perfluorooctyl)ethyl)phosphonic acid]
Experimental: as §1

[8] = compound: C=CC(=O)OCCC(F)(F)C(F)(F)C(F)(F)C(F)(F)F [2-(Perfluorobutyl)ethyl acrylate]
Experimental: as §1

Azathioprine = compound: Cn1cnc([N+](=O)[O-])c1Sc1ncnc2[nH]cnc12 [Azathioprine]
Experimental: as §1

IMphg SRB down
LOEC (log10 uM) [1]: 1.78

IMphg VCAM1 down
LOEC (log10 uM) (Perfluorooctanamidine): 1.78
LOEC (log10 uM) [1]: 1.78
LOEC (log10 uM) [2]: 1.22 ± 0.37

KF3CT ICAM1 down
LOEC (log10 uM) [1]: 1.78

KF3CT IL1a down
LOEC (log10 uM) [1]: 1.78
LOEC (log10 uM) [2]: 1.22 ± 0.37

KF3CT IL8 down
LOEC (log10 uM) [3]: 1.3
LOEC (log10 uM) [4]: 1.78
LOEC (log10 uM) [1]: 1.78

KF3CT IP10 down
LOEC (log10 uM) [4]: 1.78
LOEC (log10 uM) [1]: 1.78

KF3CT MCP1 down
LOEC (log10 uM) [1]: 1.78

KF3CT MIG down
LOEC (log10 uM) [1]: 1.78

KF3CT PAI1 down
LOEC (log10 uM) [5]: 1.78
LOEC (log10 uM) [6]: 1.78
LOEC (log10 uM) [1]: 1.3

KF3CT PAI1 up
LOEC (log10 uM) [3]: 0.801 ± 0.71

KF3CT SRB down
LOEC (log10 uM) [1]: 1.78

KF3CT TIMP2 down
LOEC (log10 uM) [1]: 1.78

KF3CT uPA down
LOEC (log10 uM) [1]: 1.78

LPS CD40 down
LOEC (log10 uM) (Perfluorooctanamidine): 1.78
LOEC (log10 uM) [7]: 1.78
LOEC (log10 uM) [8]: 1.78

LPS CD69 down
LOEC (log10 uM) [4]: 1.78
LOEC (log10 uM) (Perfluorooctanamidine): 1.78
LOEC (log10 uM) [1]: 1.78

LPS IL8 up
LOEC (log10 uM) [1]: 1.54 ± 0.34

LPS MCP1 down
LOEC (log10 uM) [1]: 1.78

LPS MCSF down
LOEC (log10 uM) (Azathioprine): 1.48
LOEC (log10 uM) [7]: 1.78
LOEC (log10 uM) [2]: 1.48

LPS MCSF up
LOEC (log10 uM) [1]: 1.78

LPS PGE2 down
LOEC (log10 uM) [4]: 1.3
LOEC (log10 uM) [1]: 1.78

LPS SRB down
LOEC (log10 uM) [1]: 1.78

LPS TNFa down
LOEC (log10 uM) (Azathioprine): 1.48

LPS Thrombomodulin up
LOEC (log10 uM) [1]: 1.78

LPS VCAM1 down
LOEC (log10 uM) [4]: 1.78
LOEC (log10 uM) (Perfluorooctanamidine): 1.78
LOEC (log10 uM) (Azathioprine): 1.22 ± 0.37
LOEC (log10 uM) [8]: 1.78

MyoF ACTA1 down
LOEC (log10 uM) [1]: 1.78

MyoF CollagenI down
LOEC (log10 uM) [4]: 1.78
LOEC (log10 uM) [1]: 1.3
LOEC (log10 uM) [2]: 1.48

MyoF CollagenIII down
LOEC (log10 uM) [4]: 1.78
LOEC (log10 uM) [1]: 1.3

MyoF CollagenIV up
LOEC (log10 uM) [3]: 0.845
LOEC (log10 uM) [4]: 1.78
LOEC (log10 uM) [1]: 1.3

MyoF MMP1 up
LOEC (log10 uM) [1]: 1.78

MyoF PAI1 down
LOEC (log10 uM) [1]: 1.78

MyoF SRB down
LOEC (log10 uM) [1]: 1.78

MyoF TIMP1 down
LOEC (log10 uM) [1]: 1.78

MyoF TIMP1 up
LOEC (log10 uM) [4]: 1.3

MyoF VCAM1 down
LOEC (log10 uM) [1]: 1.54 ± 0.34

SAg CD38 down
LOEC (log10 uM) [1]: 1.78
LOEC (log10 uM) [8]: 1.78

SAg CD40 down
LOEC (log10 uM) [1]: 1.78
LOEC (log10 uM) [7]: 1.78
LOEC (log10 uM) [8]: 1.78
LOEC (log10 uM) [2]: 1.22 ± 0.37

SAg CD69 down
LOEC (log10 uM) (Azathioprine): 1.48
LOEC (log10 uM) [1]: 1.78
LOEC (log10 uM) [8]: 1.78

SAg Eselectin down
LOEC (log10 uM) (Azathioprine): 1.48
LOEC (log10 uM) [8]: 1.78

SAg IL8 down
LOEC (log10 uM) (Azathioprine): 1.48
LOEC (log10 uM) [1]: 1.78
LOEC (log10 uM) [8]: 1.78

SAg MCP1 down
LOEC (log10 uM) [1]: 1.78
LOEC (log10 uM) [8]: 1.78

SAg PBMCCytotoxicity down
LOEC (log10 uM) (Perfluorooctanamidine): 1.78
LOEC (log10 uM) [8]: 1.78

SAg Proliferation down
LOEC (log10 uM) (Perfluorooctanamidine): 1.78
LOEC (log10 uM) (Azathioprine): 0.954
LOEC (log10 uM) [8]: 1.54 ± 0.34

SAg SRB down
LOEC (log10 uM) (Perfluorooctanamidine): 1.78
LOEC (log10 uM) [1]: 1.78
LOEC (log10 uM) [7]: 1.78

hDFCGF CollagenIII down
LOEC (log10 uM) [4]: 1.78
LOEC (log10 uM) (Perfluorooctanamidine): 1.3
LOEC (log10 uM) (Azathioprine): 0.977 ± 0.71
LOEC (log10 uM) [1]: 1.3
LOEC (log10 uM) [7]: 1.3
LOEC (log10 uM) [2]: 0.477

hDFCGF EGFR down
LOEC (log10 uM) [4]: 1.78

hDFCGF ICAM1 down
LOEC (log10 uM) [3]: 1.78
LOEC (log10 uM) [1]: 1.07 ± 0.32
LOEC (log10 uM) [8]: 1.78

hDFCGF IP10 down
LOEC (log10 uM) [4]: 1.54 ± 0.34
LOEC (log10 uM) [5]: 1.3
LOEC (log10 uM) [6]: 1.07 ± 0.32
LOEC (log10 uM) (Azathioprine): 1.22 ± 0.37
LOEC (log10 uM) [1]: 1.3
LOEC (log10 uM) [8]: 1.3
LOEC (log10 uM) [2]: 0.239 ± 0.34

hDFCGF ITAC down
LOEC (log10 uM) [4]: 1.54 ± 0.34
LOEC (log10 uM) [6]: 1.78
LOEC (log10 uM) (Azathioprine): 0.977 ± 0.71
LOEC (log10 uM) [1]: 0.573 ± 0.39
LOEC (log10 uM) [8]: 1.07 ± 0.32
LOEC (log10 uM) [2]: 0.239 ± 0.34

hDFCGF MCP1 down
LOEC (log10 uM) [1]: 1.78

hDFCGF MCSF down
LOEC (log10 uM) [4]: 1.78
LOEC (log10 uM) (Perfluorooctanamidine): 1.78
LOEC (log10 uM) [6]: 1.78
LOEC (log10 uM) (Azathioprine): 1.48
LOEC (log10 uM) [1]: 1.78
LOEC (log10 uM) [8]: 1.3

hDFCGF MIG down
LOEC (log10 uM) [4]: 1.54 ± 0.34
LOEC (log10 uM) [6]: 1.78
LOEC (log10 uM) [1]: 1.3
LOEC (log10 uM) [8]: 1.3
LOEC (log10 uM) [2]: 0.716 ± 0.34

hDFCGF MMP1 down
LOEC (log10 uM) [1]: 0.845

hDFCGF MMP1 up
LOEC (log10 uM) [8]: 1.54 ± 0.34

hDFCGF PAI1 down
LOEC (log10 uM) (Perfluorooctanamidine): 1.78
LOEC (log10 uM) (Azathioprine): 1.48
LOEC (log10 uM) [1]: 1.78
LOEC (log10 uM) [7]: 1.78

hDFCGF SRB down
LOEC (log10 uM) [1]: 1.78

hDFCGF TIMP2 down
LOEC (log10 uM) [5]: 1.78
LOEC (log10 uM) [6]: 1.54 ± 0.34
LOEC (log10 uM) [1]: 1.3

hDFCGF VCAM1 down
LOEC (log10 uM) [3]: 0.573 ± 0.39
LOEC (log10 uM) [4]: 1.3
LOEC (log10 uM) (Perfluorooctanamidine): 1.54 ± 0.34
LOEC (log10 uM) [5]: 1.78
LOEC (log10 uM) [6]: 1.78
LOEC (log10 uM) (Azathioprine): 1.48
LOEC (log10 uM) [1]: 1.78
LOEC (log10 uM) [8]: 1.3
LOEC (log10 uM) [2]: 0.977 ± 0.71
